What is called Ki is a dissociation constant, usually derived from enzyme kinetics or from competition with a known ligand. Low readings indicate higher affinity, high ones lower affinity.

These results are taken from doi:10.1101/2025.11.20.689572v1 (biorxiv, 2025).

The target in one experiment is T1, M5 (Homo sapiens, UniProt P08912).
T1 construct: gene CHRM5; full-length receptor; HEK293 with TRUPATH sensors (function)
T1 sequence (P08912 1-532): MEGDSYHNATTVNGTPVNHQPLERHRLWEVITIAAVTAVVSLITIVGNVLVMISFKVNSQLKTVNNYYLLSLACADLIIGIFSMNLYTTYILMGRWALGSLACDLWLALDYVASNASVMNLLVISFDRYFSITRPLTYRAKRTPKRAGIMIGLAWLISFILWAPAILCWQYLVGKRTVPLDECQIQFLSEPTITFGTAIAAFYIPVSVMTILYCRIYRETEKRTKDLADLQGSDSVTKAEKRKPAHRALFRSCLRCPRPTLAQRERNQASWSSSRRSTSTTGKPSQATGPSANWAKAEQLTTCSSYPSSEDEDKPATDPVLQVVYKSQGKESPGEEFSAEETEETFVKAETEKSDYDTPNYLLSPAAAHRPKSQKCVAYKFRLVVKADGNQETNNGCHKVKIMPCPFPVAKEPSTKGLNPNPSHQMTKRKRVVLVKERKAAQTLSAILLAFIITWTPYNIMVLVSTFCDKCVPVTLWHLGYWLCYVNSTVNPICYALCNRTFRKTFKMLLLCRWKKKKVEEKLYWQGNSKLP
Kind of experiment: competitive radioligand binding, HEK293 membranes.

A further experiment addresses T2, M1 (Homo sapiens, UniProt P11229).
T2 construct: gene CHRM1; full-length receptor; HEK293 with TRUPATH sensors (function)
T2 sequence (P11229 1-460): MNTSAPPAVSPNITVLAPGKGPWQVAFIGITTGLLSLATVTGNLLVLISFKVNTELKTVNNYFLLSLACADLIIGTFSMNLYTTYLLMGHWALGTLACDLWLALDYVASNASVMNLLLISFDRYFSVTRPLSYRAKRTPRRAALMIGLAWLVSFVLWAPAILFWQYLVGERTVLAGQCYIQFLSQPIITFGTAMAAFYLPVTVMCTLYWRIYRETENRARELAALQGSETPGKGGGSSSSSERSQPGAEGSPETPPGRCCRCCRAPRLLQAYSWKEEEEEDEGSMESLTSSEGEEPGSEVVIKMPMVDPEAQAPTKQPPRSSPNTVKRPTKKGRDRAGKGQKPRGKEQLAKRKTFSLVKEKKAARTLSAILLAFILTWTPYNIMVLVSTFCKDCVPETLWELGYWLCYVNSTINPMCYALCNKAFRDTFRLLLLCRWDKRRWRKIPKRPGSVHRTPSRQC
Kind of experiment: competitive radioligand binding, HEK293 membranes.

For another experiment, the target named is T3, HTR2C (Homo sapiens, UniProt P28335).
T3 sequence (P28335 1-458): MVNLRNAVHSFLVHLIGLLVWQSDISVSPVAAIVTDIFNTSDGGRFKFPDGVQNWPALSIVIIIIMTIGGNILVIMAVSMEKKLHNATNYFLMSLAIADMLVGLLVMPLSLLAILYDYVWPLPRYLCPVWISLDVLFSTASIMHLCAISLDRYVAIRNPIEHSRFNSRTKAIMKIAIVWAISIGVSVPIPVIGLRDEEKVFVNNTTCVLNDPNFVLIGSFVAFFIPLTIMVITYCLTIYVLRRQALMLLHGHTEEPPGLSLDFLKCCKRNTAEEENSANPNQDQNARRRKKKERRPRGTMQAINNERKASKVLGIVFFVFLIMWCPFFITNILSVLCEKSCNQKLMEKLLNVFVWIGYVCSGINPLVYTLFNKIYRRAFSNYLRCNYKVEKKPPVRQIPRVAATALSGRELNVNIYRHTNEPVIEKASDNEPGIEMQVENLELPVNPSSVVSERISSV
Kind of experiment: cell-based. Further details: species or system HEK293; Fluo-4 Direct calcium mobilization on FLIPR-Tetra. As to conditions: HEK293, read-out: N-Desmethyl Xanomeline; Assay=Calcium; agonist mode, % of control agonist.

The target in another experiment is HTR2A (Homo sapiens, UniProt P28223). Kind of experiment: cell-based. Set-up: Fluo-4 Direct calcium mobilization on FLIPR-Tetra. As to conditions: HEK293, read-out: N-Desmethyl Xanomeline; Assay=Calcium; agonist mode, % of control agonist.
Chain of HTR2A (P28223 whole entry): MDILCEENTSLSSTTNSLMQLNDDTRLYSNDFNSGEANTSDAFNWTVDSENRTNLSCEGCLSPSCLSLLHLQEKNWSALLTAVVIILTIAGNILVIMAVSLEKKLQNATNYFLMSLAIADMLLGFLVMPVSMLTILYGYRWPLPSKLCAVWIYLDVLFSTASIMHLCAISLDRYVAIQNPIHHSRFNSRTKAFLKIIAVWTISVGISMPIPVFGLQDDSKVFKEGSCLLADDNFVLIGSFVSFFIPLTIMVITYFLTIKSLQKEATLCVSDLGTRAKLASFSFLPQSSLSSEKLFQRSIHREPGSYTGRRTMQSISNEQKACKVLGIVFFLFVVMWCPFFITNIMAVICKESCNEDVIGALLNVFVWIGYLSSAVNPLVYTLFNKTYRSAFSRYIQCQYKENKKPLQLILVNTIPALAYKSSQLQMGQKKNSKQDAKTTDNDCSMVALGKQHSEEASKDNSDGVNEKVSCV
Another experiment addresses α1A (Homo sapiens, UniProt P35348). Kind of experiment: competitive radioligand binding, HEK293 membranes. Further details: gene ADRA1A; full-length receptor; HEK293 cell membranes. From the text: competitive radioligand binding, HEK293 membranes on α1A
The target of a further experiment is T4, D1 (Homo sapiens, UniProt P21728).
T4 construct: gene DRD1; full-length receptor; HEK293 cell membranes
T4 sequence (P21728 whole entry): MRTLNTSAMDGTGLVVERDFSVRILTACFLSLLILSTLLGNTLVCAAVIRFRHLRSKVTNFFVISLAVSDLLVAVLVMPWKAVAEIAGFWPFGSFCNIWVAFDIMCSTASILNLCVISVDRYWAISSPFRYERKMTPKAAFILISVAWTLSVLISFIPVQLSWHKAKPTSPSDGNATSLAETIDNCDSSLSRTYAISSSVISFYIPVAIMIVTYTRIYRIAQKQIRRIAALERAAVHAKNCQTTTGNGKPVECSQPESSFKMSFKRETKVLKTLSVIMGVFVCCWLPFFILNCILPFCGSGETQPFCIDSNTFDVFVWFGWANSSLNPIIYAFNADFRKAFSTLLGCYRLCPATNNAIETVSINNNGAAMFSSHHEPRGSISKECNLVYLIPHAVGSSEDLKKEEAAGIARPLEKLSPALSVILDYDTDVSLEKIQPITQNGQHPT
Kind of experiment: competitive radioligand binding, HEK293 membranes. From the text:
competitive radioligand binding, HEK293 membranes on D1

Chain of α1A (P35348 whole entry): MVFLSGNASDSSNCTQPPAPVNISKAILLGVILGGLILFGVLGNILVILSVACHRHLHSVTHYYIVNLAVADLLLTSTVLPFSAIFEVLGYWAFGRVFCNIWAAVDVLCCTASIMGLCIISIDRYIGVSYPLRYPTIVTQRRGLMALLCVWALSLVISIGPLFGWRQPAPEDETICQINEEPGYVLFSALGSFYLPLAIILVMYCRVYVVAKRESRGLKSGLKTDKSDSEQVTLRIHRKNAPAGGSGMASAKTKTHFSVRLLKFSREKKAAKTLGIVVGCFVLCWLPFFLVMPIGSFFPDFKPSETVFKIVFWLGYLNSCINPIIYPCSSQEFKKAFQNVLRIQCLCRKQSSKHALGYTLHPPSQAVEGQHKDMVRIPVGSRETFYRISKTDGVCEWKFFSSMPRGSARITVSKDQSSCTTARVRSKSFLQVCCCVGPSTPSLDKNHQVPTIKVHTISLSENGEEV

For the molecule `CCCCCCOc1nsnc1C1=CCCNC1` [N-desmethylxanomeline], the figures for the Ki at M5, at M1 and at α1A were 0.0933 µM, 0.219 µM and 0.282 µM, respectively. Further, the Emax came to 59% at HTR2C and 63.4% on HTR2A.

The molecule `CCCCCCOc1nsnc1C1=CCCN(C)C1` [Xanomeline] had a Ki at D1 of 1.58 µM.
